According to PMC11249953, “c-KIT inhibitors reduce pathology and improve behavior in the Tg(SwDI) model of Alzheimer’s disease” (Life Science Alliance, 2024):

What was measured:
PDGFRb = target: T1, PDGFRb (Homo sapiens, UniProt P09619); assay: KINOMEscan competition binding, PDGFRb; conditions: 10 µM compound; for remaining binding at 10 µM: lower = stronger binding, read-out: PDGFRb %Ctrl @ 10000nM (POC)
T1 construct: DNA label for qPCR read-out (T7 phage fusion or DNA tag); purchased Eurofins DiscoverX Corporation; host or cells: T7 phage in E. coli (BL21-derived) or HEK-293
T1 sequence (P09619 33-1106): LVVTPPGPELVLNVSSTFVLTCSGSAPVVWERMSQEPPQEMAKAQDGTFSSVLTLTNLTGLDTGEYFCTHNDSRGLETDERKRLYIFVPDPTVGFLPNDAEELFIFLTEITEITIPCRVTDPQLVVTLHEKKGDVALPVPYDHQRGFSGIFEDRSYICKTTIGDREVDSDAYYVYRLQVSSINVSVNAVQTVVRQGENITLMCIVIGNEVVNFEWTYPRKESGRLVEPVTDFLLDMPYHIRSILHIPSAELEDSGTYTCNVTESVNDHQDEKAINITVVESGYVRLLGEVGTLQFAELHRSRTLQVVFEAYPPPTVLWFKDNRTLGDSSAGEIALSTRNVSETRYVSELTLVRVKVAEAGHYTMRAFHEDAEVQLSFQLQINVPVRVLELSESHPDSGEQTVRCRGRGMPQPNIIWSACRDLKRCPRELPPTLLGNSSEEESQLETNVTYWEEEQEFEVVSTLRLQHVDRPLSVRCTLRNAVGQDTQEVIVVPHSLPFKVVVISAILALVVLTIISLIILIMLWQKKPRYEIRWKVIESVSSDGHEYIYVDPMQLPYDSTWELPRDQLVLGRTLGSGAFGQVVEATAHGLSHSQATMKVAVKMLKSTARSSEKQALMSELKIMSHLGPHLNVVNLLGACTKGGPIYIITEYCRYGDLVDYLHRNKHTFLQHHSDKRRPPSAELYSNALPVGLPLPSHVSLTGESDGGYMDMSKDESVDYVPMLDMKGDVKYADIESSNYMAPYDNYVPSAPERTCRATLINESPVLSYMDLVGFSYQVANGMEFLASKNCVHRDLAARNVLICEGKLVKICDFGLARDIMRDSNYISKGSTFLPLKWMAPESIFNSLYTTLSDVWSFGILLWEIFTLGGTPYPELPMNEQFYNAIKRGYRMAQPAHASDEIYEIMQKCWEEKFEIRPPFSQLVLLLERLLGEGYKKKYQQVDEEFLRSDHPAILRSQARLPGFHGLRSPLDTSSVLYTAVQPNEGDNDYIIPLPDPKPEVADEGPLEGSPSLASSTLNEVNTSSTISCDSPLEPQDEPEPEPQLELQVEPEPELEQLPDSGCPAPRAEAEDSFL
Procedure: (§1) The KINOMEscan screening platform (Eurofins DiscoverX Corporation) was performed using active site-directed competition binding assay to quantitatively measure interactions between BK40143 and BK40197 and more than 450 human kinases and disease relevant mutant variants. […] Screening “hits” are identified by measuring the amount of kinase captured in test (BK40143 and BK40197) versus control samples by using a quantitative and ultra-sensitive qRT-PCR method that detects the associated DNA label. BK40143 and BK40197 were screened at 10 µM concentration, and results for primary screen binding interactions were reported as “% Ctrl” (POC), where lower numbers indicate stronger hits and calculated as follows: [test compound signal−positive control signal/negative control signal−positive control signal]×100
(§2) negative control = DMSO (100% Ctrl)
(§3) positive control = control compound (0% Ctrl)
(§4) Based on screening data from of profiled compounds, a proportional relationship between primary screening results and corresponding compound/target affinities can be described as binding constants (Kd values) for the indicated ranges of POC values with tighter binding (higher affinity) interactions associated with lower POC values and weaker binding (lower affinity) associated with higher POC values. Briefly, kinase-tagged T7 phage strains were grown in parallel in 24-well blocks in an E. coli host derived from the BL21 strain. E. coli were grown to log-phase and infected with T7 phage from a frozen stock (multiplicity of infection = 0.4) and incubated with shaking at 32°C until lysis (90–150 min). The lysates were centrifuged (6,000g) and filtered (0.2 μm) to remove cell debris. The remaining kinases were produced in HEK-293 cells and subsequently tagged with DNA for qRT-PCR detection. Streptavidin-coated magnetic beads were treated with biotinylated small molecule ligands for 30 min at RT to generate affinity resins for kinase assays. The liganded beads were blocked with excess biotin and washed with blocking buffer (1% BSA, 0.05% Tween 20, 1 mM DTT; SeaBlock [Pierce]) to remove unbound ligand and to reduce non-specific phage binding. Binding reactions were assembled by combining kinases, liganded affinity beads, and test compounds in 1x binding buffer (20% 0.17x PBS, 0.05% Tween 20, 6 mM DTT; SeaBlock). Test compounds were prepared as 100x stocks in 100% DMSO and directly diluted into the assay. All reactions were performed in polypropylene 384-well plates in a final volume of 0.02 ml. The assay plates were incubated at RT with shaking for 1 h and the affinity beads were washed with wash buffer (1x PBS, 0.05% Tween 20). […] The kinase concentration in the eluates was measured by qRT-PCR.

SRC = target: T2, SRC (Homo sapiens, UniProt P12931); assay: KINOMEscan competition binding, SRC; conditions: 10 µM compound; for remaining binding at 10 µM: lower = stronger binding, read-out: SRC %Ctrl @ 10000nM (POC)
T2 construct: DNA label for qPCR read-out (T7 phage fusion or DNA tag); purchased Eurofins DiscoverX Corporation; host or cells: T7 phage in E. coli (BL21-derived) or HEK-293
T2 sequence (P12931 whole entry, the tested form may be a part): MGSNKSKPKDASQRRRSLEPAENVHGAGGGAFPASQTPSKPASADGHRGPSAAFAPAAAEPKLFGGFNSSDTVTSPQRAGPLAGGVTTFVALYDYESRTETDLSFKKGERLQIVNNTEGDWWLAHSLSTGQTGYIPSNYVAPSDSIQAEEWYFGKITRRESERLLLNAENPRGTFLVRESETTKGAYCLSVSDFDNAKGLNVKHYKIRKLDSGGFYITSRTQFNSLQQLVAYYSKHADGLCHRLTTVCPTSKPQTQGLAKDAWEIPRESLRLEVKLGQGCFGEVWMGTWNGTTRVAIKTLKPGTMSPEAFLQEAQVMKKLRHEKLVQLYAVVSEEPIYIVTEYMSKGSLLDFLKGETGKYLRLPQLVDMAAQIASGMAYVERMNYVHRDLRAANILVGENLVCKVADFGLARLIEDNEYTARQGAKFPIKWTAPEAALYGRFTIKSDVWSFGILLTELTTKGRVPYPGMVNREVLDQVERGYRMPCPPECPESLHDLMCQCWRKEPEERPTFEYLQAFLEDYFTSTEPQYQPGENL
Procedure: as §1, §2, §3, §4

MAP4K4 = target: T3, MAP4K4 (Homo sapiens, UniProt O95819); assay: KINOMEscan competition binding, MAP4K4; conditions: 10 µM compound; for remaining binding at 10 µM: lower = stronger binding, read-out: MAP4K4 %Ctrl @ 10000nM (POC)
T3 construct: DNA label for qPCR read-out (T7 phage fusion or DNA tag); purchased Eurofins DiscoverX Corporation; host or cells: T7 phage in E. coli (BL21-derived) or HEK-293
T3 sequence (O95819 whole entry, the tested form may be a part): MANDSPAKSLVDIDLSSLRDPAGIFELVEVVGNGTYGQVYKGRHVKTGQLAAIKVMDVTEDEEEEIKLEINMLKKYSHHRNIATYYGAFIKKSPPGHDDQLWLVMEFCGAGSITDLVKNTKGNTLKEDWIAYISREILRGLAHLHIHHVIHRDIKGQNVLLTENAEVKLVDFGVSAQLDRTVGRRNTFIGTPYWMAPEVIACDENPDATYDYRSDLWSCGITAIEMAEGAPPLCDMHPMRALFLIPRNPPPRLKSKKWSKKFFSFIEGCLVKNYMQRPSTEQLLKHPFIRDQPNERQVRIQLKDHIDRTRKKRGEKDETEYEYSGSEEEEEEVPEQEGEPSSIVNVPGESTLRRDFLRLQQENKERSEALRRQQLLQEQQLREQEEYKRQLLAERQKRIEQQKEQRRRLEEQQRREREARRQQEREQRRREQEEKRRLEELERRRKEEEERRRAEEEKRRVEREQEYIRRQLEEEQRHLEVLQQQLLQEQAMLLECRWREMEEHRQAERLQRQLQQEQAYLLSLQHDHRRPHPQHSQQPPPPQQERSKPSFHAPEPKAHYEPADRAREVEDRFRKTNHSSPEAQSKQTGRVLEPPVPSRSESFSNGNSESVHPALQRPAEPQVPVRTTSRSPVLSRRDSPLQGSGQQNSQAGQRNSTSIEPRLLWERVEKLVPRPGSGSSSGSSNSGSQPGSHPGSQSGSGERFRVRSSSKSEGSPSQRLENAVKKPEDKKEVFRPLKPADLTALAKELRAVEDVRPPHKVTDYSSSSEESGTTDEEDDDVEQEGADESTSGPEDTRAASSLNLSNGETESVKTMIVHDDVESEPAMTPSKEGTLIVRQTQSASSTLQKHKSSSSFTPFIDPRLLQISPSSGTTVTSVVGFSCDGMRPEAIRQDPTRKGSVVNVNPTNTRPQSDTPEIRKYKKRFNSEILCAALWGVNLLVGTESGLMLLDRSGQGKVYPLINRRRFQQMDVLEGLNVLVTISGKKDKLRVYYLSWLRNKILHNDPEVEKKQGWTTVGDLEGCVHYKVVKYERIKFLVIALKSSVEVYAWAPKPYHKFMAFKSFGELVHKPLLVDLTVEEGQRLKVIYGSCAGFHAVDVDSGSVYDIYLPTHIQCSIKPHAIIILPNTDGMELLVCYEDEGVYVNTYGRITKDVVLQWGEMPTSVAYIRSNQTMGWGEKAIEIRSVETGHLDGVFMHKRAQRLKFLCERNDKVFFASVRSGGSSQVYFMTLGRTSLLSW
Procedure: as §1, §2, §3, §4

DDR1 = target: T4, DDR1 (Homo sapiens, UniProt Q08345); assay: KINOMEscan competition binding, DDR1; conditions: 10 µM compound; for remaining binding at 10 µM: lower = stronger binding, read-out: DDR1 %Ctrl @ 10000nM
T4 construct: DNA label for qPCR read-out (T7 phage fusion or DNA tag); purchased Eurofins DiscoverX Corporation; host or cells: T7 phage in E. coli (BL21-derived) or HEK-293
T4 sequence (Q08345 19-913): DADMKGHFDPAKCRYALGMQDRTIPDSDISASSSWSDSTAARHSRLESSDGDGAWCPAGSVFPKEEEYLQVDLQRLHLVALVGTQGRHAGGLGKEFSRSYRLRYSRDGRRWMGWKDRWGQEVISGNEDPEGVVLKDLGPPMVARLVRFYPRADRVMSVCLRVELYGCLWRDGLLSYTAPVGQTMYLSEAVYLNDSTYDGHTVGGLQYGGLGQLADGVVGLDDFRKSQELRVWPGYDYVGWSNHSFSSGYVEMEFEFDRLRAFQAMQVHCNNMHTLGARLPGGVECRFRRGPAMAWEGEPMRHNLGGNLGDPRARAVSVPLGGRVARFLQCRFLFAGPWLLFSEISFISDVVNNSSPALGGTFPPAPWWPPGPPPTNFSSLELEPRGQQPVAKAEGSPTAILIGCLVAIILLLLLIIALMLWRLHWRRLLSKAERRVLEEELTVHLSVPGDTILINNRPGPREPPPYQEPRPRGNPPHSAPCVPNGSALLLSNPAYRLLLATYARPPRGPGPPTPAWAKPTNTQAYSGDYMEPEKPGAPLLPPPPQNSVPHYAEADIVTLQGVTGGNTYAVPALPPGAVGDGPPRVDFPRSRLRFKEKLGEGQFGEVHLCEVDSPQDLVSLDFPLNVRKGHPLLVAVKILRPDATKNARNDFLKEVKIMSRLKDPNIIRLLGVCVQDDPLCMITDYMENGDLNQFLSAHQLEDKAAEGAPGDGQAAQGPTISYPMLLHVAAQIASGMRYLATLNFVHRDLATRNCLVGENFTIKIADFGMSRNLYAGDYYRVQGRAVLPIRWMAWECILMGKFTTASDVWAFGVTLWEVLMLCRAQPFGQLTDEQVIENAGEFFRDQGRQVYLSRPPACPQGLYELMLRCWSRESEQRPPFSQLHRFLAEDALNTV
Procedure: as §1, §2, §3, §4

[1] = tested on: amyloid-beta in TgAPP mice; assay: ELISA for amyloid-beta in brain lysates; format: in vivo, mouse; conditions: vs DMSO
Procedure: All samples were analyzed in parallel using the same reagents. A total of 25 μl soluble protein was incubated overnight at 4°C with 25 μl of a mixed bead solution. After washing, samples were incubated with 25 μl detection antibody solution for 1.5 h at RT. Streptavidin–phycoerythrin (25 μl) was added to each well containing the 25 μl of detection antibody solution. Samples were then washed and suspended in 100 μl of sheath fluid. Samples were then run on MAGPIX with Xponent software. The median fluorescent intensity data were analyzed using a five-parameter logistic or spline curve-fitting method for calculating analyte concentrations in samples. Specific pTau ser396 (KHB7031; Invitrogen), aggregated Aβ (KHB3491; Thermo Fisher Scientific), and Aβ42 (KHB3442; Invitrogen) were performed according to manufacturer’s protocol on tissue soluble extracts from brain lysates in 1XSTEN buffer.

Structure (SMILES)	inhibition at 10 µM (PDGFRb)	remaining binding at 10 µM (PDGFRb)	inhibition at 10 µM (SRC)	remaining binding at 10 µM (SRC)	inhibition at 10 µM (MAP4K4)	remaining binding at 10 µM (MAP4K4)	inhibition at 10 µM (DDR1)	remaining binding at 10 µM (DDR1)	Aβ concentration in brain lysate (ELISA) [1]
Cc1cccc(-c2cc3nccc(N4CCOCC4)c3s2)c1 [BK40197]	98.7%	1.3%	19%	81%	60%	40%	0%	100%	significantly reduced Aβ and pTau (396) concentrations
Cc1cccc(-c2cc3nccc(Nc4ccccc4)c3s2)c1 [BK40143]	99.9%	0.1%	84.7%	5.3%	93.2%	6.8%	69%	31%	significantly reduced Aβ and pTau (396) concentrations
